We go through 51 compounds from ChEMBL document CHEMBL1158509, “Novel selective thiazoleacetic acids as CRTH2 antagonists developed from in silico derived hits. Part 2” (Bioorg Med Chem Lett, 2010).

Assay [1] has as its target T1, Prostaglandin D2 receptor 2 (Homo sapiens, UniProt Q9Y5Y4).
T1 sequence (Q9Y5Y4 whole entry): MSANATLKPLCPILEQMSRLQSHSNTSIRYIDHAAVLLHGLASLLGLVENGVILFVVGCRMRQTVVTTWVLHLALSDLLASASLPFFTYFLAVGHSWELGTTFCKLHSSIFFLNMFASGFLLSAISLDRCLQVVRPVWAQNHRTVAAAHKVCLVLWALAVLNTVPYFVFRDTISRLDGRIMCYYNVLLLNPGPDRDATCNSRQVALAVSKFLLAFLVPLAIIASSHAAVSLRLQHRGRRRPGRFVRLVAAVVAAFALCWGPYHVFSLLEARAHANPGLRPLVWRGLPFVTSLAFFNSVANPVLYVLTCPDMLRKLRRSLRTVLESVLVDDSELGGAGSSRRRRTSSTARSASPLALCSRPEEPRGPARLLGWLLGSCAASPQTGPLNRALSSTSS
Description: Antagonist activity at human CRTH2 receptor expressed in […] cells assessed as inhibition of beta arrestin translocation by bioluminescence resonance energy transfer assay. The format is functional, cell-based.

Assay [2] has as its target T2, Prostaglandin D2 receptor 2 (Homo sapiens) (UniProt Q9Y5Y4).
T2 sequence (whole entry): T1 sequence (Q9Y5Y4 whole entry)
In words: Antagonist activity at human CRTH2 receptor expressed in […] cells assessed as inhibition of beta arrestin translocation by bioluminescence resonance energy transfer assay relative to control. The format is functional, cell-based.

The target of assay [3] is T1, Prostaglandin D2 receptor 2. In words: Displacement of[3H]PGD2 from human CRTH2 receptor expressed in […] cells. The format is cell-based.

The term IC50 denotes the point on the concentration scale where inhibition reaches its midpoint.

Molecules are shown by their SMILES. Bounds are passed on as bounds.

Consider `O=C(O)Cc1sc(C(c2ccccc2)c2ccccc2)nc1-c1ccccc1`, for which the concentration for half-maximal inhibition (IC50) in assay [1] turned out to be 370 nM; in assay [3], 570 nM. Moreover, the Efficacy in assay [2] came to 80%.
Turning to `Nc1cc(-c2nc(C(c3ccc(F)cc3)c3ccc(F)cc3)sc2CC(=O)O)ccn1`, the results for the 50% inhibitory concentration (IC50) in assay [1] and in assay [3] were 64 nM and 4.8 nM, respectively. In addition, the Efficacy in assay [2] turned out to be 80%.
On the same counts, the results for `CC(=O)N1CCC(c2ccccc2)(c2nc(-c3ccc(Cl)cc3)c(CC(=O)O)s2)CC1` are 550 nM, 52 nM and 50%.
On the same counts, the results for `NS(=O)(=O)c1cccc(-c2nc(C(c3ccc(F)cc3)c3ccc(F)cc3)sc2CC(=O)O)c1` are 710 nM, 140 nM and 55%.
Regarding `O=C(O)Cc1sc(Cc2ccccc2)nc1-c1ccc(Cl)cc1`, the Efficacy in assay [2] came to 50%.
Take `CNc1cc(-c2nc(C(c3ccc(F)cc3)c3ccc(F)cc3)sc2CC(=O)O)ccn1`: the results for the half-maximal inhibitory concentration (IC50) in assay [1] and in assay [3] were 170 nM and 25 nM, respectively. In addition, the Efficacy in assay [2] is 80%.
On the same counts, the results for `Nc1ccc(-c2nc(C(c3ccc(F)cc3)c3ccc(F)cc3)sc2CC(=O)O)cn1` are 500 nM, 100 nM and 60%.
On the same counts, the results for `O=C(O)Cc1sc(CC(c2ccccc2)c2ccccc2)nc1-c1ccc(Cl)cc1` are 32000 nM, 340 nM and 50%.
Consider `CS(=O)(=O)Nc1cccc(-c2nc(C(c3ccc(F)cc3)c3ccc(F)cc3)sc2CC(=O)O)c1`, for which the half-maximal inhibitory concentration (IC50) in assay [1] was found to be 370 nM; in assay [3], 40 nM. For the same compound, the Efficacy in assay [2] stood at 80%.
On the same counts, the results for `O=C(O)Cc1sc(C(c2ccccc2)c2ccc(F)c(F)c2)nc1-c1ccc(F)cc1` (stereo unspecified) are 64 nM, 10 nM and 80%.
As to `COc1ccc(C(c2ccccc2)c2nc(-c3ccc(Cl)cc3)c(CC(=O)O)s2)cc1` (stereo unspecified), the half-inhibitory concentration (IC50) in assay [1] stood at 76 nM; in assay [3], 8.4 nM. For the same compound, the Efficacy in assay [2] was 80%.
For the compound `O=C(O)Cc1sc(C(c2ccc(F)cc2)c2ccc(F)cc2)nc1-c1ccccc1`, the IC50 in assay [1] was found to be 240 nM; in assay [3], 16 nM. In assay [2], the Efficacy was determined as 80%.
On the same counts, the results for `COc1cc(-c2nc(C(c3ccc(F)cc3)c3ccc(F)cc3)sc2CC(=O)O)ccn1` are 380 nM, 29 nM and 60%.
With `NS(=O)(=O)c1ccc(-c2nc(C(c3ccc(F)cc3)c3ccc(F)cc3)sc2CC(=O)O)cc1`, the IC50 was > 100000 nM in assay [1] and 1500 nM in assay [3]. For the same compound, the Efficacy in assay [2] was 80%.
On the same counts, the results for `O=C(O)Cc1sc(C(c2ccc(F)cc2)c2ccc(F)cc2)nc1-c1ccco1` are 140 nM, 18 nM and 80%.
On the same counts, the results for `O=C(O)Cc1sc(C(c2ccccc2)C2CCCCC2)nc1-c1ccc(Cl)cc1` (stereo unspecified) are > 100000 nM, 530 nM and 50%.
`O=C(O)Cc1sc(C(c2ccccc2)c2ccccn2)nc1-c1ccc(Cl)cc1` (stereo unspecified): the IC50 in assay [1] turned out to be 1900 nM; in assay [3], 810 nM. Further, in assay [2], the Efficacy worked out at 55%.
On the same counts, the results for `O=C(O)Cc1sc(C(c2ccc(F)cc2)c2ccc(F)cc2)nc1-c1ccnc(Cl)c1` are 39 nM, 3.1 nM and 80%.
On the same counts, the results for `O=C(O)Cc1sc(NCc2ccccc2)nc1-c1ccc(Cl)cc1` are 2300 nM, 440 nM and 30%.
On the same counts, the results for `O=C(O)Cc1sc(C(c2ccccc2)c2ccc(Cl)cc2)nc1-c1ccc(Cl)cc1` (stereo unspecified) are 75 nM, 45 nM and 80%.
As to `COc1ccc(-c2nc(C(c3ccccc3)c3ccccc3)sc2CC(=O)O)cc1`, the figures for the IC50 in assay [1] and in assay [3] were 910 nM and 370 nM, respectively. Besides, in assay [2], the Efficacy stood at 55%.
On the same counts, the results for `O=C(O)Cc1sc(C(c2ccc(F)cc2)c2ccc(F)cc2)nc1-c1ccnc(N2CCCC2)c1` are > 100000 nM, 230 nM and 80%.
On the same counts, the results for `O=C(O)Cc1sc(CS(=O)(=O)c2ccc(Cl)cc2)nc1-c1ccc(Cl)cc1` are 730 nM, 1500 nM and 30%.
For `O=C(O)Cc1sc(C(c2ccccc2)c2ccccc2)nc1-c1cccc(F)c1`, the IC50 in assay [1] turned out to be 29 nM; in assay [3], 2.9 nM. Further, the Efficacy in assay [2] amounted to 80%.
`COc1ccc(OC)c(-c2nc(C(c3ccccc3)c3ccccc3)sc2CC(=O)O)c1`: in assay [1], the IC50 was > 100000 nM. In addition, in assay [2], the Efficacy was determined as 80%.
Turning to `O=C(O)Cc1sc(NC(=O)c2ccccc2)nc1-c1ccc(Cl)cc1`, the values for the IC50 in assay [1] and in assay [3] were 870 nM and 520 nM, respectively. Moreover, in assay [2], the Efficacy was found to be 50%.
Consider `CN(C)c1cc(-c2nc(C(c3ccc(F)cc3)c3ccc(F)cc3)sc2CC(=O)O)ccn1`, for which the figures for the IC50 in assay [1] and in assay [3] were > 100000 nM and 380 nM, respectively. The Efficacy in assay [2] amounted to 80%.
On the same counts, the results for `O=C(O)Cc1sc(C(c2ccccc2)c2ccccc2)nc1-c1ccc(C(F)(F)F)cc1` are > 100000 nM, 1100 nM and 80%.
Consider `Cc1cc(-c2nc(C(c3ccc(F)cc3)c3ccc(F)cc3)sc2CC(=O)O)cnc1N`, for which the values for the IC50 in assay [1] and in assay [3] were > 100000 nM and 880 nM, respectively. Also, in assay [2], the Efficacy was found to be 80%.
On the same counts, the results for `O=C(O)Cc1sc(C(c2ccc(F)cc2)c2ccc(F)cc2)nc1-c1ccncc1` are 40 nM, 5.3 nM and 80%.
Take `N#Cc1cccc(-c2nc(C(c3ccc(F)cc3)c3ccc(F)cc3)sc2CC(=O)O)c1`: the results for the half-maximal inhibitory concentration (IC50) in assay [1] and in assay [3] were 220 nM and 20 nM, respectively. Further, the Efficacy in assay [2] came to 80%.
`O=C(O)Cc1sc(C(c2ccc(F)cc2)c2ccc(F)cc2)nc1-c1cc(F)nc(F)c1`: the IC50 amounted to 110 nM in assay [1] and 5.4 nM in assay [3]. Further, the Efficacy in assay [2] amounted to 80%.
On the same counts, the results for `O=C(O)Cc1sc(C(c2ccc(F)cc2)c2ccc(F)cc2)nc1-c1cccnc1` are 510 nM, 68 nM and 80%.
For `Nc1cc(-c2nc(C(c3ccc(F)cc3)c3ccc(F)cc3)sc2CC(=O)O)cc(F)n1`, the IC50 in assay [1] was determined as 1400 nM; in assay [3] it was 220 nM. Moreover, the Efficacy in assay [2] was 30%.
On the same counts, the results for `O=C(O)Cc1sc(C(c2ccc(F)cc2)c2ccc(F)cc2)nc1-c1cc(F)cc(F)c1` are 340 nM, 35 nM and 80%.
On the same counts, the results for `O=C(O)Cc1sc(C(c2ccc(F)cc2)c2ccc(F)cc2)nc1-c1ccn[nH]1` are 3300 nM, 280 nM and 30%.
On the same counts, the results for `O=C(O)Cc1sc(C(c2ccc(F)cc2)c2ccc(F)cc2)nc1-c1cccc(F)c1` are 18 nM, 1.4 nM and 80%.
`O=C(O)Cc1sc(C(c2ccccc2)c2ccc(F)cc2)nc1-c1ccc(Cl)cc1` (stereo unspecified): the IC50 in assay [1] came out at 36 nM; in assay [3], 17 nM. In addition, in assay [2], the Efficacy was 80%.
For the compound `O=C(O)Cc1sc(C(c2ccc(F)cc2)c2ccc(F)cc2)nc1-c1cc[nH]c(=O)c1`, the half-inhibitory concentration (IC50) was 890 nM in assay [1] and 68 nM in assay [3].
For `O=C(O)Cc1sc(NCCc2ccccc2)nc1-c1ccc(Cl)cc1`, the IC50 in assay [1] came out at 390 nM; in assay [3], 650 nM. In assay [2], the Efficacy came to 50%.
Regarding `Cn1cc(-c2nc(C(c3ccc(F)cc3)c3ccc(F)cc3)sc2CC(=O)O)cn1`, the IC50 in assay [1] turned out to be 3500 nM; in assay [3], 1300 nM. Further, in assay [2], the Efficacy is 80%.
As to `O=C(O)Cc1sc(C(c2ccc(F)cc2)c2ccc(F)cc2)nc1-c1ccnc(O)c1`, the Efficacy in assay [2] was found to be 60%.
Turning to `O=C(O)Cc1sc(C(Cc2ccccc2)c2ccccc2)nc1-c1ccc(Cl)cc1` (stereo unspecified), the IC50 came to 510 nM in assay [1] and 56 nM in assay [3]. For the same compound, the Efficacy in assay [2] worked out at 50%.
On the same counts, the results for `O=C(O)Cc1sc(C(c2ccc(F)cc2)c2ccc(F)cc2)nc1-c1cn[nH]c1` are 220 nM, 16 nM and 80%.
`CCC(c1ccccc1)c1nc(-c2ccc(Cl)cc2)c(CC(=O)O)s1` (stereo unspecified): the figures for the IC50 in assay [1] and in assay [3] were > 100000 nM and 190 nM, respectively. In addition, the Efficacy in assay [2] stood at 50%.
On the same counts, the results for `O=C(O)Cc1sc(C2COc3ccccc3O2)nc1-c1ccc(Cl)cc1` (stereo unspecified) are 2000 nM, 500 nM and 50%.
On the same counts, the results for `COc1ccc(Cl)cc1-c1nc(C(c2ccccc2)c2ccccc2)sc1CC(=O)O` are > 100000 nM, 9400 nM and 80%.
Take `O=C(O)Cc1sc(-c2ccccc2)nc1-c1ccc(Cl)cc1` [FENTIAZAC]: the 50% inhibitory concentration (IC50) in assay [1] turned out to be 960 nM. In addition, the Efficacy in assay [2] amounted to 50%.
As for `O=C(O)Cc1sc(Nc2ccccc2)nc1-c1ccc(Cl)cc1`, the Efficacy in assay [2] amounted to 50%.
Regarding `O=C(O)Cc1sc(-c2ccc(Oc3ccccc3)cc2)nc1-c1ccc(Cl)cc1`, in assay [1], the 50% inhibitory concentration (IC50) came to 1300 nM. Besides, the Efficacy in assay [2] was 50%.
`O=C(O)Cc1sc(Cc2ccccc2-c2ccccc2)nc1-c1ccc(Cl)cc1`: the Efficacy in assay [2] came to 50%.
